US11202871B2, “Devices for evaporation and inhalation of active agents” (Emplicure AB, priority 2016, dated 2021)
Where a name gives a salt, the structure may show the parent alone. Read-outs that look alike come from different tables or passages of the source.

Experiments:
[1] = Oven heating of Al2O3 rods soaked in sumatriptan succinate solution; assay type: physicochemical
Text: Aluminium oxide ceramic rods were obtained from […] (Sweden): […] Oven […] 218 was obtained from Wilfa, (Norway).

[2] = Oven heating of calcium sulphate coins pre-loaded with sumatriptan succinate; assay type: physicochemical; settings: pre-loaded calcium sulphate coins (0.07 g/g calcium sulphate); oven approx. 250° C.
[3] = for amount of nicotine detected in the reference sample (not heated) / nicotine detected in coins after heating versus reference: pure nicotine (20 mg) dispensed; for amount of nicotine detected in the reference sample (not heated): dried 24 hours
[4] = calcium sulphate rods soaked 24 hours in pure nicotine; heated 5*10 sec.; max 315° C., 6 W
Text: Aluminium oxide ceramic rods and calcium sulphate rods were obtained as described in Example 3. Nicotine and nicotine solutions were supplied and applied, and nicotine levels were detected as described in Example 3.
Samples were heated using a prototype e-cigarette device (X-Cube II, Smoke) obtained from Devex Mekatronik AB (Sweden). The device is derived from the commercially available e-cigarette X-Cube.
The sample in the device was heated up by a coil that is wrapped around the sample.
The end of the device was connected to a vial via a silicon hose. The vial contained 1 ml of deionised water. To simulate smoking a rod was put into the device and puffing was performed. Puffing involves a sequence of 5 puffs that are each 10 seconds long. After puffing, the hose was removed and flushed with the water. The water was analysed for concentration of nicotine.

[5] = calcium sulphate coins, nicotine solution 50 μl, 18 mg/ml dispensed
Text: Calcium sulphate coins were obtained as described in Example 3. For the indirect induction test a magnet was molded into the coin. Nicotine and nicotine solutions were supplied and applied, and nicotine levels were detected as described in Example 3.
Metal plate for induction cooker was obtained from Haneström (Sweden). Induction cooker Wilfa ICP-2000 was obtained from Media Markt (Sweden). Magnets (10*1 mm, Samarium Cobalt magnets, 0.4 kg pull) were obtained from first4magnets (UK). IR-thermometer (MS6520A) was obtained from Mastech (USA).
Heat treatment by indirect induction was carried out by placing a metal plate onto the induction cooker. The ceramic coins containing a magnet was applied onto the metal plate and heated on maximum effect (exact temperature was not measured; see FIG. 10).

[6] = Liquid/Powder 0.4 (w/w)
Description: Calcium sulphate alpha hemihydrate (CaS) was obtained from Bo Ehrlander AB (Sweden). Shaped silicon rubbers were used as molds for coins (diameter: 12 mm, thickness: 2 mm). The calcium sulphate was mixed with a nicotine solution with a concentration of 5 or 20 mg/ml of nicotine (Liquid/Powder ratio of 0.4 (w/w)) to form a homogenous paste, which was filled in the rubber molds. Once the paste was applied, the molds were set to dry for at least 12 h under ambient conditions.
The temperature was set to approximately 200° C.
The sample was characterized by UV-spectrophotometer at a wavelength of 219 nm. The amount nicotine in the samples were then calculated.

[7] = Al2O3 discs, oven 188° C. for 15 minutes
Description: (§2) Ceramic discs (Al2O3) with different pore sizes (0.25, 1, 6, 15 and 30 μm) were prepared in two sizes: (i) 63 mm in diameter and 6.3 mm in thickness (pore sizes 0.25, 1 and 6 μm); and (ii) 48 mm in diameter and 6.3 mm in thickness (pore sizes 15 and 30 μm). The porosity was approximately 40% vol and the density 3.75 g/cm^3 for all discs according to product specification.
The discs were dried in room temperature for 24 hours. The discs were heated in an oven at 188° C. for 15 minutes, the control discs were not heated.

[8] = Text: Calcium sulphate alpha hemihydrate (CaS) was obtained from Bo Ehrlander AB (Sweden). Clonidine hydrochloride was obtained from PCAS (Finland). Shaped silicon rubbers were used as molds for coins (diameter: 12 mm, thickness: 2 mm). The calcium sulphate was mixed with powder of Clonidine hydrochloride (0.07 g Clonidine hydrochloride/g calcium sulphate) and deionised water (Liquid/Powder ratio of 0.4 (w/w)) to form a homogenous paste, which was used to fill the rubber molds. Once the paste had been applied, the molds were set to dry for at least 12 h under ambient conditions.
The oven temperature was set to approximately 250° C.
(§1) Each coin was weighed and immersed into a beaker containing 200 ml of deionised water. […] The sample was characterized by Shimadzu LC-2030 (Germany) HPLC system with a Genesis C18 analytical column 4 μm (100×2.1 mm i.d.) with a mobile phase of acetonitrile/phosphoric acid, pH 3 (11/89). The wavelength was set to 220 nm.
The reference samples represent the amount of clonidine hydrochloride mg/g calcium sulphate that was loaded before heat treatment.

[9] = calcium sulphate coins, solution 50 μl, 5 mg/ml dispensed; oven approx. 250° C., 0 to 15 minutes
Description: Calcium sulphate alpha hemihydrate (CaS) was obtained from Bo Ehrlander AB (Sweden). Clonidine hydrochloride was obtained from PCAS (Finland). Shaped silicon rubbers were used as molds for coins (diameter: 12 mm, thickness: 2 mm). The calcium sulphate was mixed with deionised water (Liquid/Powder ratio of 0.4 (w/w)) to form a homogenous paste, which was used to fill the rubber molds. When the paste was applied, the molds were set to dry for at least 12 h under ambient conditions.
Clonidine hydrochloride solution (50 μl, 5 mg/ml) was dispensed onto the calcium sulphate coins. When the solution was applied, the coins were set to dry for at least 12 h under ambient conditions.
The temperature was set to approximately 250° C.
as §1
The reference samples represent the amount of clonidine hydrochloride that was loaded before heat treatment.

[10] = Oven heating of aluminium oxide ceramic discs loaded with ibuprofen; amount remaining by UV; assay type: physicochemical; settings: Al2O3 discs, oven 250° C. for 15 minutes
Description: Ceramic discs comprising ibuprofen (IOL Chemicals and Pharmaceuticals Ltd, India) were prepared using aluminium oxide (Al2O3; Keranova, Sweden) as follows.
as §2
The discs (pore sizes 0.25, 1, 6, 15 and 30 μm) were soaked in a 400 ml in phosphate buffer with pH 7.4 (one phosphate buffer saline tablet (Sigma-Aldrich, USA) dissolved in 200 ml deionized water) with a concentration of 408.5 μg/ml ibuprofen for 24 hours. The discs were dried in room temperature for 24 hours. […] All discs were measured for concentration of ibuprofen in 400 ml phosphate buffer pH 7.4 at 37° C. (USP paddle method (paddle speed 50 rpm), VanKel 7025, Varian Inc, USA) and the concentration for ibuprofen was measured using a UV spectrophotometer Shimadzu 1800, Japan at a wavelength of 220 nm to determine the amount of ibuprofen in the ceramic discs. The amount of ibuprofen in control discs was measured after 15 hours (i.e. after maximum drug release) and in heat treated discs after 1.5 hours (i.e. the maximal amount drug was at this time point released).

[11] = calcium sulphate rods soaked in pure nicotine, oven approx. 200° C.

CNS(=O)(=O)Cc1ccc2[nH]cc(CCN(C)C)c2c1 [sumatriptan succinate]
amount of sumatriptan succinate the rods were able to absorb ([1]; Al2O3 rods soaked in 20 mg/ml solution for 24 hours): approximately 1 mg sumatriptan succinate/rod | time within which almost all of the sumatriptan succinate was released when heated ([1]; Al2O3 rods soaked in 20 mg/ml solution, oven approx. 300° C.): 5 to 15 min | time within which almost all of the sumatriptan succinate was released when heated [2]: ≤ 15 min

CN1CCCC1c1cccnc1 (stereo not drawn) [nicotine]
time within which almost all of the nicotine was released when heated ([3]; aluminium oxide rods soaked in 6 mg/ml nicotine solution (diluted e-juice) 24 hours, oven approx. 200° C.): 5 to 10 min | amount of nicotine the rods were able to absorb ([3]; aluminium oxide rods soaked in 6 mg/ml nicotine solution for 24 hours): approximately 135 μg nicotine/rod | amount of nicotine detected in the reference sample (not heated) ([3]; calcium sulphate coins): lower than 20 mg | nicotine detected in coins after heating versus reference ([3]; calcium sulphate coins, oven approx. 200° C.): a lower release of nicotine was detected after heating | amount of nicotine the rods were able to absorb ([3]; calcium sulphate rods soaked in pure nicotine for 24 hours): approximately 20 mg nicotine/rod | nicotine release during heating [3, 11]: Most of the nicotine was released during heating | nicotine release, 5 min versus 1 min of heating [3, 11]: a higher amount was released during 5 min of heating compared to 1 min of heating | amount of nicotine detected in the reference sample (not heated) ([3]; geopolymer coins): about 16 mg | nicotine detected in coins after heating versus reference ([3]; geopolymer coins, oven approx. 200° C.): a lower release of nicotine was detected after heating | nicotine release on heat treatment in e-cigarette device [4]: a heat treatment in the device will result in a nicotine release | nicotine release on induction heating, unheated plate ([5]; heated about 1 or about 5 minutes): Most of the nicotine was released within the first minute | nicotine release on induction heating, pre-heated plate ([5]; plate at least 150° C., heated 5 seconds): a substantial quantity of nicotine was released | amount of nicotine contained in the coins ([6]; calcium sulphate coins mixed with 5 mg/ml nicotine solution): approximately 180 μg | amount of nicotine contained in the coins ([6]; calcium sulphate coins mixed with 20 mg/ml nicotine solution): ~390 µg | amount of nicotine remaining after heat treatment compared to pre-heat treatment control ([7]; pore sizes 0.25, 6, 15 and 30 μm, all samples): very significantly reduced | degradation of nicotine on heating (changes in absorbance at other wavelengths) [7]: no significant degradation

Clc1cccc(Cl)c1N=C1NCCN1 [clonidine hydrochloride]
amount of clonidine hydrochloride contained in a coin ([8]; calcium sulphate coins, 0.07 g clonidine hydrochloride/g calcium sulphate, coin approx. 0.3 g): approximately 17 mg | time within which almost all of the clonidine hydrochloride was released when heated ([8]; pre-loaded calcium sulphate coins, oven approx. 250° C.): ≤ 15 min | amount of clonidine hydrochloride present in the coins during heating [9]: decreased significantly over time

CC(C)Cc1ccc(C(C)C(=O)O)cc1 (stereo not drawn) [ibuprofen]
amount of ibuprofen remaining after heat treatment ([10]; pore sizes 0.25, 1, 6, 15 and 30 μm, all samples): zero | degradation of ibuprofen on heating (changes in absorbance at other wavelengths) [10]: no significant degradation
